Our source for the ring closure, yield of all isomers, IC50 and EC50 values is patent publication US20110081315A1, “NOVEL MACROCYCLIC INHIBITORS OF HEPATITIS C VIRUS REPLICATION” (INTERMUNE, INC., priority 2009, published 2011).

Read-outs that look alike come from different tables or passages of the source.

For series [1] the following is noted: rcm bond.
In another series the target is NS3/NS4 complexes (Hepatitis C virus genotype 1a, UniProt P27958). Nature of the series: NS3/NS4 inhibition assay (IC50). As to conditions: NS3/NS4 activity; 23° C., 25 μM NS4A peptide. In kind it is biochemical. The procedure, abridged: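 First, NS3 and NS4 are complexed; test compounds are then titrated against the complex at room temperature (23° C.) in Tris-HCl buffer, pH 7.5, supplemented with glycerol (15%), LDAO (0.6 mM), DTT (10 mM) and NS4A peptide (25 μM) to give IC50. Separately, replicon cells give EC50.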
Chain of NS3/NS4 complexes (P27958 1027-1657, one chain of several): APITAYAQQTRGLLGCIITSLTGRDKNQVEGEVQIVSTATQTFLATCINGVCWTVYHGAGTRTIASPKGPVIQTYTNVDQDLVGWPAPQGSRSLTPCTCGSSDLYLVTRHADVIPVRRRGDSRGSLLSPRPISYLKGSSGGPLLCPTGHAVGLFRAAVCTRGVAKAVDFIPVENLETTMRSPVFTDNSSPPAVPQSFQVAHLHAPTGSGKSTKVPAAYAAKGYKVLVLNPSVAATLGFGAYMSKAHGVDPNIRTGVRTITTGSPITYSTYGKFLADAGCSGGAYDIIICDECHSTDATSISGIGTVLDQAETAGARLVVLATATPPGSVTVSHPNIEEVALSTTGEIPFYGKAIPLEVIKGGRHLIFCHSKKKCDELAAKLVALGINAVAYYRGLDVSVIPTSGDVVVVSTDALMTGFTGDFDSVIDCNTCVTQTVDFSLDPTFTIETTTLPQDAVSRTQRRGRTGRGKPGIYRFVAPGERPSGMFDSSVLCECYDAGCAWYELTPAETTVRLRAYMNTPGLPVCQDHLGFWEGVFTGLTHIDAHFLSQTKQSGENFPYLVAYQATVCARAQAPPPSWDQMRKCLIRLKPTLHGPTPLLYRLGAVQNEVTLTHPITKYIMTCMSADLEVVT

In another series the test system is hepatitis C replicon. Nature of the series: hepatitis C replicon EC50 assay. As to conditions: Hepatitis C virus; hepatitis C replicon; read-out: EC50. In kind it is cell-based. The essentials:
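Replicon EC50 determined per a referenced patent protocol; assays run at ambient temperature (23° C.) in 50 mM Tris-HCl pH 7.5 with 15% glycerol, 0.6 mM LDAO, 25 μM NS4A peptide and 10 mM DTT.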

With `CC(C)n1cnc2cnc(O[C@@H]3C[C@H]4C(=O)N[C@]5(C(=O)NS(=O)(=O)C6(C)CC6)C[C@H]5C=CCCCCC[C@H](Nc5ccc(C(F)(F)F)cc5)C(=O)N4C3)nc21`, the ring closure, yield of all isomers in series [1] (from C=CCCCCC[C@H](Nc1ccc(C(F)(F)F)cc1)C(=O)N1C[C@H](Oc2ncc3ncn(C(C)C)c3n2)C[C@H]1C(=O)N[C@]1(C(=O)NS(=O)(=O)C2(C)CC2)C[C@H]1C=C, Zhan catalyst, toluene, 7.78 mM, 65.0 °C, 1.5 h) was 29%.
As to `CCOC(=O)[C@@]12C[C@H]1C=CCCCCN(c1ccccc1)C(=O)[C@@H]1C[C@@H](O)C[C@H]1C(=O)N2`, the ring closure, yield of all isomers in series [1] (from C=CCCCCN(C(=O)[C@@H]1C[C@@H](O)C[C@H]1C(=O)N[C@]1(C(=O)OCC)C[C@H]1C=C)c1ccccc1, Hoveyda-Grubbs 2nd generation, DCE, 0.167 mM, 83.0 °C, 16.0 h) amounted to 94.6%.
In series [1] (from C=CCCCCC[C@H](Nc1cccc(F)c1)C(=O)N1C[C@H](Oc2nc(-c3nc(C(C)C)cs3)nc3c(C)c(OC)ccc23)C[C@H]1C(=O)N[C@]1(C(=O)NS(=O)(=O)C2(C)CC2)C[C@H]1C=C, Zhan catalyst, toluene, 7.24 mM, 65.0 °C, 0.67 h), `COc1ccc2c(O[C@@H]3C[C@H]4C(=O)N[C@]5(C(=O)NS(=O)(=O)C6(C)CC6)C[C@H]5C=CCCCCC[C@H](Nc5cccc(F)c5)C(=O)N4C3)nc(-c3nc(C(C)C)cs3)nc2c1C` registered a ring closure, yield of all isomers of 24%.
Broadly, the IC50 is the concentration needed to halve the response being measured. A word on the EC50: it is the midpoint of the concentration-response curve. With `CC(C)n1c(O[C@@H]2C[C@H]3C(=O)N[C@]4(C(=O)NS(=O)(=O)C5(C)CC5)C[C@H]4/C=C\CCCCC[C@H](NC(=O)OC(C)(C)C)C(=O)N3C2)nc2c(-c3nc(CC4CCCCC4)cs3)cccc21` [Compound 1773], at NS3/NS4 complexes, the IC50 was < 10 nM. For the same molecule, the EC50 in the series with hepatitis C replicon is < 10 nM.
Take `CC(C)n1c(O[C@@H]2C[C@H]3C(=O)N[C@]4(C(=O)NS(=O)(=O)C5(C)CC5)C[C@H]4/C=C\CCCCC[C@H](NC(=O)OC(C)(C)C)C(=O)N3C2)nc2c(-c3nc4c(s3)CCCC4(C)C)cccc21` [Compound 1774]: the IC50 on NS3/NS4 complexes was < 10 nM. In addition, in the series with hepatitis C replicon, the EC50 was in the range of 10 to 100 nM.
With `CC(C)n1c(O[C@@H]2C[C@H]3C(=O)N[C@]4(C(=O)NS(=O)(=O)N(C)C)C[C@H]4/C=C\CCCCC[C@H](NC(=O)OC(C)(C)C)C(=O)N3C2)nc2c(-c3nc4c(s3)CCCC4(C)C)cccc21` [Compound 1775], the IC50 at NS3/NS4 complexes is < 10 nM. The EC50 with hepatitis C replicon was 10 to 100 nM.
As to `CC(C)n1c(O[C@@H]2C[C@H]3C(=O)N[C@]4(C(=O)NS(=O)(=O)N(C)C)C[C@H]4/C=C\CCCCC[C@H](NC(=O)OC(C)(C)C)C(=O)N3C2)nc2c(-c3nc(C4CC4)cs3)cccc21` [Compound 1776], the IC50 against NS3/NS4 complexes is < 10 nM. For the same molecule, the EC50 with hepatitis C replicon is < 10 nM.
For `CC(C)n1c(O[C@@H]2C[C@H]3C(=O)N[C@]4(C(=O)NS(=O)(=O)C5(C)CC5)C[C@H]4/C=C\CCCCC[C@H](NC(=O)OC(C)(C)C)C(=O)N3C2)nc2c(-c3nc(C4CC4)cs3)cccc21` [Compound 1777], the IC50 on NS3/NS4 complexes was < 10 nM. For the same molecule, in the series with hepatitis C replicon, the EC50 was < 10 nM.
As for `CC(C)n1c(O[C@@H]2C[C@H]3C(=O)N[C@]4(C(=O)NS(=O)(=O)C5(C)CC5)C[C@H]4/C=C\CCCCC[C@H](NC(=O)OC(C)(C)C)C(=O)N3C2)nc2ncccc21` [Compound 1779], at NS3/NS4 complexes, the IC50 was < 10 nM. In addition, the EC50 with hepatitis C replicon was in the range of 10 to 100 nM.
Taken in the same sequence, the figures for `CC(C)n1c(O[C@@H]2C[C@H]3C(=O)N[C@]4(C(=O)NS(=O)(=O)N(C)C)C[C@H]4/C=C\CCCCC[C@H](NC(=O)OC(C)(C)C)C(=O)N3C2)nc2ncccc21` [Compound 1780] were < 10 nM and 10 to 100 nM.
